Measurements published in patent EP0318860B1, “Substituted alkylamine derivatives” (BANYU PHARMACEUTICAL CO., LTD., priority 1987, dated 1989).

Key:
rat squalene epoxidase = target: T1, rat squalene epoxidase (Rattus norvegicus, UniProt P52020); experiment: Squalene epoxidase inhibiting activity (3H-squalene to squalene-2,3-epoxide, solubilized liver microsome fraction); type: biochemical; conditions: 8 µM 3H-squalene, 37 °C, 30 minutes, read-out: 50 % inhibitory concentration (IC50)
T1 construct: Livers were extracted and homogenized; from tissue; host or cells: liver of SD-strain female rats; microsomes solubilized with 2 % Triton X-100, 105000 x g supernatant
T1 sequence (P52020 whole entry): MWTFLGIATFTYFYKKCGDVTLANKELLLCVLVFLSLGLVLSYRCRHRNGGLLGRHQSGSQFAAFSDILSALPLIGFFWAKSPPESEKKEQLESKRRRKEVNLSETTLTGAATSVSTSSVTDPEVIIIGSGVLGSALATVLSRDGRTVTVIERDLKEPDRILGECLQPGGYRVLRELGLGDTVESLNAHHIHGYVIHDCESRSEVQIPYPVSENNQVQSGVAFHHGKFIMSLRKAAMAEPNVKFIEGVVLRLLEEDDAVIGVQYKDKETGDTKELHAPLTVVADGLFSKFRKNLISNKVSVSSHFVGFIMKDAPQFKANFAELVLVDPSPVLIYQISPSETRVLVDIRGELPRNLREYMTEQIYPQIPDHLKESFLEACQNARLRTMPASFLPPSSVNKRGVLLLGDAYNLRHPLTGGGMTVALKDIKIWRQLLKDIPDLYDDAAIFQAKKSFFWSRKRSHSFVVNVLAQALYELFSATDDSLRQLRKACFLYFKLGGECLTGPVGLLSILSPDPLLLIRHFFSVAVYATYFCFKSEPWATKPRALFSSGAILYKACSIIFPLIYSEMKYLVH

[1] = test system: cholesterol biosynthesis in the cultured Hep-G2 cells; experiment: Inhibitory activity on cholesterol biosynthesis in cultured cells ([14C] acetate incorporation); type: cell-based; conditions: HepG2; Human hepatoma (Hep-G2) cells, [14C] sodium acetate, 6 hours; read-out: 50% inhibitory concentration (IC₅₀)
Method: Human hepatoma (Hep-G2) cells were cultured in 10 cm² dishes until they formed a monolayer. One milliliter of the culture medium was replaced, and 1 µCi of [¹⁴C] sodium acetate and 1 microliter of a dimethyl sulfoxide solution of a test drug were added, and the cells were cultured at 37 °C in air containing 5 % of carbon dioxide for 6 hours.
After the cultivation, the medium was aspirated, and the cells were cooled with ice, and washed with Dulbecco's phosphate buffered saline solution. The resulting cells were scraped by a rubber policeman, and collected by centrifugation. The cells collected were dissolved in 400 microliters of 0.3N sodium hydroxide. A 200 microliters aliquot of the solution was used for extraction, and the remainder, for protein determination.
To 200 microliters of the extracted cells, 15 % ethanolic potassium hydroxide was added, and saponification was carried out at 75 °C for 1 hour. Water (1 ml) was then added, and the mixture was extracted with 2 ml of petroleum ether twice to remove non-saponified materials. The petroleum ether extracts were washed with 1 ml of water, and evaporated under a nitrogen stream. The residue was spotted on a pre-coated silica gel TLC plate using a small amount of chloroform, and developed with hexane/ethyl ether/acetic acid (85:15:4). Cholesterol and squalene portions on the TLC were detected with iodine, and the corresponding TLC portions were cut out. The TLC strips were immersed in a toluene-type scintillator, and radioactivity was counted by a liquid scintillation counter. The results were corrected by the amount of proteins measured by the method described in J. Biol. Chem., vol. 193, page 265, 1951. The 50 % inhibitory concentration (IC₅₀ value) of the compound of the invention on cholesterol biosynthesis in the cultured Hep-G2 cells was calculated.

cholesterol biosynthesis = experiment: Test on inhibition of cholesterol biosynthesis in vivo ([14C] acetate, plasma 14C-cholesterol); conditions: male SD rats, 100 mg/kg orally; for ¹⁴C-cholesterol: dpm of 14C-cholesterol present in 1 ml of the plasma; for Inhibition of cholesterol biosynthesis: test group compared with control group
Method: Male SD rats, 5 weeks of age, were used in the in vivo test. The rats were kept for 9 days in an environment of reversed light cycle (i.e., dark between 6:00 am and 6:00 pm). The rats were allowed to take a solid diet and water freely. The test drug was orally administered two hours before dark sixth hour when the cholesterol synthesis reached a maximum. Compounds 6 and 44 were administered as a suspension in a 0.5 % aqueous solution of methyl cellulose. Compound 45 was administered in a 0.5 % aqueous solution of methyl cellulose containing 5 % of dimethyl sulfoxide and 1 % Tween 80. The dose was 1 ml/100 g of body weight.
An equal volume of 0.5 % methyl cellulose was administered to a control group. One hour after administration of the test drug, [¹⁴C] sodium acetate (56 mCi/mmole) was intraperitoneally administered to the rats in a dose of 20 µCi/100 g of body weight. At dark sixth hour, a blood sample was obtained from the abdominal artery under ether anesthesia, and the plasma was separated by centrifugation.
Two milliliters of plasma was mixed with a 15 % methanolic potassium hydroxide and saponified by heating at 75 °C for 3 hours. The resulting sample was extracted with 2 ml of petroleum ether twice. The extracts were washed with 2 ml of distilled water, and finally evaporated under a nitrogen stream. The resulting residue was dissolved in a small amount of ethyl ether, and all the solution was spotted on a pre-coated silica gel TLC plate. The plate was developed with a solvent system composed of hexane/ethyl ether/acetic acid (85:15:4). Color formation was carried out by iodine, and the radioactivity of the cholesterol portion was measured by a liquid scintillation counter.
The results were expressed in dpm of the resulting ¹⁴C-cholesterol present in 1 ml of the plasma. The inhibition of cholesterol biosynthesis was calculated by comparing the amounts of ¹⁴C-cholesterol biosynthesized in the test group and that in the control group.

Candida albicans = experiment: Antimycotic activity test (Sabouraud's agar dilution, MIC); type: cell-based; conditions: 48 h, C. albicans, 37 °C for 2 days, read-out: MIC
Method: (§1) Each of the test fungi was cultured (Candida albicans was cultured overnight in Sabouraud broth; Trichophyton was inoculated in Sabouraud's agar and cultured for 2 days, after which the spores were harvested). Thereafter, one platinum loopful of Candida albicans or Trichophyton (10⁶ cells/ml for C. albicans; 10⁶ spores/ml for Trichophyton) was inoculated in Sabouraud's agar containing the test drug in various concentrations, and cultured (at 37 °C for 2 days for C. albicans; at 28 °C for 5 days for Trichophyton). Then, the minimum growth inhibition concentration (MIC) was measured. […]

Trichophyton = experiment: as above; type: cell-based; conditions: 120 h, 28 °C for 5 days, read-out: MIC
Method: as §1

MIC (Candida albicans)	MIC (Trichophyton)	SMILES	IC50 (rat squalene epoxidase)	IC50 [1]	¹⁴C-cholesterol (cholesterol biosynthesis)	Inhibition of cholesterol biosynthesis (cholesterol biosynthesis)
–	–	Cc1ccccc1COc1cccc(CN(C)C/C=C/C#CC(C)(C)C)c1.Cl [Compound 6, (E)-N-(6,6-dimethyl-2-hepten-4-ynyl)-N-methyl-3-(2-methylbenzyloxy)benzylamine hydrochloride]	560 nM	340 nM	862±387 dpm	53%
> 100 µg/mL	> 100 µg/mL	CCCN(C/C=C/C#CC(C)(C)C)Cc1cccc(OCc2ccccc2C)c1.Cl [Compound 45, (E)-N-(6,6-dimethyl-2-hepten-4-ynyl)-N-propyl-3-(2-methylbenzyloxy)benzylamine hydrochloride]	120 nM	83 nM	274±155 dpm	85%
> 100 µg/mL	> 100 µg/mL	CN(C/C=C/C#CC(C)(C)C)Cc1cccc(OCc2cccc(C#N)c2)c1.Cl [Compound 64, (E)-N-(6,6-dimethyl-2-hepten-4-ynyl)-N-methyl-3-(3-cyanobenzyloxy)benzylamine hydrochloride]	510 nM	120 nM	–	–
–	–	CCN(C/C=C/C#CC(C)(C)C)Cc1cccc(OCc2ccccc2C)c1.Cl [Compound 44, (E)-N-(6,6-dimethyl-2-hepten-4-ynyl)-N-ethyl-3-(2-methylbenzyloxy)benzylamine hydrochloride]	160 nM	50 nM	568±313 dpm	69%
